Assay results published in US20080039422A1, “Vitamin B12-Containing Compositions and Methods of Use” (Transition Therapeutics Inc., priority 2004, published 2008).

How the values were obtained:
[1] = Methylcobalamin-containing solutions; format: physicochemical
Method: A variety of solutions containing methylcobalamin (Me-Cbl) were tested. In one series of experiments, solutions containing ethanol, propylene glycol, or both ethanol and propylene glycol were challenged with 20 mg/ml Me-Cbl. In another series of experiments, the same solutions were challenged with 50 mg/ml Me-Cbl. The conditions were the same as those described for CN-Cbl. In both series, the excipients included: (a) 15% ethanol; (b) 20% ethanol; (c) 20% propylene glycol; (d) 40% propylene glycol; (e) 15% ethanol and 20% propylene glycol; and (f) 20% ethanol and 40% propylene glycol. Following suitable dilution, the absorbance at A340 was measured on Day 0, Day 1, and Day 2 (Table 7).

[2] = Methylcobalamin-containing solutions; format: physicochemical; remark: listed apart in the source

## C/C1=C2/[N-][C@H]([C@H](CC(N)=O)[C@@]2(C)CCC(=O)NC[C@H](C)OP(=O)([O-])O[C@H]2[C@@H](O)[C@@H](n3cnc4cc(C)c(C)cc43)O[C@@H]2CO)[C@]2(C)N=C(/C(C)=C3N=C(/C=C4N=C1[C@@H](CCC(N)=O)C\4(C)C)[C@@H](CCC(N)=O)[C@]\3(C)CC(N)=O)[C@@H](CCC(N)=O)[C@]2(C)CC(N)=O.[CH3-].[Co+3] [Me-Cbl, methylcobalamin]
[1]; challenge 20 mg/mL, ethanol 0%, PG 20%, Day 0
  Conc of Me-Cbl: 23610 µg/mL
[1]; challenge 20 mg/mL, ethanol 0%, PG 20%, Day 0 reading
  Conc of Me-Cbl: 17560 µM
[1]; challenge 20 mg/mL, ethanol 0%, PG 20%, Day 1
  Conc of Me-Cbl: 24020 µg/mL
[1]; challenge 20 mg/mL, ethanol 0%, PG 40%, Day 0 reading
  Conc of Me-Cbl: 17800 µM
[1]; challenge 20 mg/mL, ethanol 20%, PG 40%, Day 0
  Conc of Me-Cbl: 22800 µg/mL
[1]; challenge 50 mg/mL, ethanol 20%, PG 0%, Day 1
  Conc of Me-Cbl: 10470 µg/mL
[1]; challenge 50 mg/mL, ethanol 20%, PG 40%, Day 0
  Conc of Me-Cbl: 57620 µg/mL
[1]; challenge 50 mg/mL, ethanol 20%, PG 40%, Day 0 reading
  Conc of Me-Cbl: 42860 µM
[2]; challenge 20 mg/mL, ethanol 0%, PG 0%, Day 0
  Conc of Me-Cbl: 17180 µg/mL
[2]; challenge 20 mg/mL, ethanol 0%, PG 0%, Day 0 reading
  Conc of Me-Cbl: 12780 µM
[2]; challenge 20 mg/mL, ethanol 0%, PG 0%, Day 1
  Conc of Me-Cbl: 14030 µg/mL
[2]; challenge 20 mg/mL, ethanol 0%, PG 0%, Day 3
  Conc of Me-Cbl: 13180 µg/mL
[2]; challenge 20 mg/mL, ethanol 0%, PG 20%, Day 3
  Conc of Me-Cbl: 23370 µg/mL
[2]; challenge 20 mg/mL, ethanol 0%, PG 40%, Day 0
  Conc of Me-Cbl: 23940 µg/mL
[2]; challenge 20 mg/mL, ethanol 0%, PG 40%, Day 1
  Conc of Me-Cbl: 24340 µg/mL
[2]; challenge 20 mg/mL, ethanol 0%, PG 40%, Day 3
  Conc of Me-Cbl: 24500 µg/mL
[2]; challenge 20 mg/mL, ethanol 15%, PG 0%, Day 0
  Conc of Me-Cbl: 22800 µg/mL
[2]; challenge 20 mg/mL, ethanol 15%, PG 0%, Day 0 reading
  Conc of Me-Cbl: 16960 µM
[2]; challenge 20 mg/mL, ethanol 15%, PG 0%, Day 1
  Conc of Me-Cbl: 12530 µg/mL
[2]; challenge 20 mg/mL, ethanol 15%, PG 0%, Day 3
  Conc of Me-Cbl: 11120 µg/mL
[2]; challenge 20 mg/mL, ethanol 15%, PG 20%, Day 0
  Conc of Me-Cbl: 22720 µg/mL
[2]; challenge 20 mg/mL, ethanol 15%, PG 20%, Day 0 reading
  Conc of Me-Cbl: 16900 µM
[2]; challenge 20 mg/mL, ethanol 15%, PG 20%, Day 1
  Conc of Me-Cbl: 23450 µg/mL
[2]; challenge 20 mg/mL, ethanol 15%, PG 20%, Day 3
  Conc of Me-Cbl: 21910 µg/mL
[2]; challenge 20 mg/mL, ethanol 20%, PG 0%, Day 0
  Conc of Me-Cbl: 23130 µg/mL
[2]; challenge 20 mg/mL, ethanol 20%, PG 0%, Day 0 reading
  Conc of Me-Cbl: 17200 µM
[2]; challenge 20 mg/mL, ethanol 20%, PG 0%, Day 1
  Conc of Me-Cbl: 9180 µg/mL
[2]; challenge 20 mg/mL, ethanol 20%, PG 0%, Day 3
  Conc of Me-Cbl: 9180 µg/mL
[2]; challenge 20 mg/mL, ethanol 20%, PG 40%, Day 0 reading
  Conc of Me-Cbl: 16960 µM
[2]; challenge 20 mg/mL, ethanol 20%, PG 40%, Day 1
  Conc of Me-Cbl: 23860 µg/mL
[2]; challenge 20 mg/mL, ethanol 20%, PG 40%, Day 3
  Conc of Me-Cbl: 24100 µg/mL
[2]; challenge 50 mg/mL, ethanol 0%, PG 0%, Day 0
  Conc of Me-Cbl: 12660 µg/mL
[2]; challenge 50 mg/mL, ethanol 0%, PG 0%, Day 0 reading
  Conc of Me-Cbl: 9410 µM
[2]; challenge 50 mg/mL, ethanol 0%, PG 0%, Day 1
  Conc of Me-Cbl: 12860 µg/mL
[2]; challenge 50 mg/mL, ethanol 0%, PG 0%, Day 3
  Conc of Me-Cbl: 12860 µg/mL
[2]; challenge 50 mg/mL, ethanol 0%, PG 20%, Day 0
  Conc of Me-Cbl: 58220 µg/mL
[2]; challenge 50 mg/mL, ethanol 0%, PG 20%, Day 0 reading
  Conc of Me-Cbl: 43310 µM
[2]; challenge 50 mg/mL, ethanol 0%, PG 20%, Day 1
  Conc of Me-Cbl: 17990 µg/mL
[2]; challenge 50 mg/mL, ethanol 0%, PG 20%, Day 3
  Conc of Me-Cbl: 17790 µg/mL
[2]; challenge 50 mg/mL, ethanol 0%, PG 40%, Day 0
  Conc of Me-Cbl: 57210 µg/mL
[2]; challenge 50 mg/mL, ethanol 0%, PG 40%, Day 0 reading
  Conc of Me-Cbl: 42560 µM
[2]; challenge 50 mg/mL, ethanol 0%, PG 40%, Day 1
  Conc of Me-Cbl: 23210 µg/mL
[2]; challenge 50 mg/mL, ethanol 0%, PG 40%, Day 3
  Conc of Me-Cbl: 22160 µg/mL
[2]; challenge 50 mg/mL, ethanol 15%, PG 0%, Day 0
  Conc of Me-Cbl: 56610 µg/mL
[2]; challenge 50 mg/mL, ethanol 15%, PG 0%, Day 0 reading
  Conc of Me-Cbl: 42110 µM
[2]; challenge 50 mg/mL, ethanol 15%, PG 0%, Day 1
  Conc of Me-Cbl: 11930 µg/mL
[2]; challenge 50 mg/mL, ethanol 15%, PG 0%, Day 3
  Conc of Me-Cbl: 11320 µg/mL
[2]; challenge 50 mg/mL, ethanol 15%, PG 20%, Day 0
  Conc of Me-Cbl: 56610 µg/mL
[2]; challenge 50 mg/mL, ethanol 15%, PG 20%, Day 0 reading
  Conc of Me-Cbl: 42110 µM
[2]; challenge 50 mg/mL, ethanol 15%, PG 20%, Day 1
  Conc of Me-Cbl: 15490 µg/mL
[2]; challenge 50 mg/mL, ethanol 15%, PG 20%, Day 3
  Conc of Me-Cbl: 15450 µg/mL
[2]; challenge 50 mg/mL, ethanol 20%, PG 0%, Day 0
  Conc of Me-Cbl: 58020 µg/mL
[2]; challenge 50 mg/mL, ethanol 20%, PG 0%, Day 0 reading
  Conc of Me-Cbl: 43160 µM
[2]; challenge 50 mg/mL, ethanol 20%, PG 0%, Day 3
  Conc of Me-Cbl: 10350 µg/mL
[2]; challenge 50 mg/mL, ethanol 20%, PG 40%, Day 1
  Conc of Me-Cbl: 51150 µg/mL
[2]; challenge 50 mg/mL, ethanol 20%, PG 40%, Day 3
  Conc of Me-Cbl: 48120 µg/mL
